Assay results published in patent US20150302167A1, “SYSTEM AND METHOD FOR DEVELOPMENT OF THERAPEUTIC SOLUTIONS” (CELLWORKS RESEARCH INDIA PRIVATE LIMITED, priority 2012, published 2015).

Assays:
[1] = Type: Drug; published clinical trial data; cited from earlier work
[2] = Published clinical trial data of RA drugs: ACR20/ACR50/ACR70 response, drug vs placebo; assay type: in vivo, human; settings: for ACR20 Diff. / ACR50 Diff. / ACR70 Diff.: Type: Diff. (drug minus placebo), * significant difference > 15%; for Highest Significant Clinical Disease Remission Score: highest ACR level with significant difference > 15% over placebo
Text: In another embodiment, American College of Rheumatoid (ACR) scoring system and DAS28 scoring system are used to determine the extent of improvement in the RA disease symptoms on treatment with a drug.
In another embodiment, the ACR scoring system involves three main scores: ACR20 score pertaining to 20% improvement in the disease, ACR50 score pertaining to 50% improvement in the disease and ACR70 score pertaining to 70% improvement in the disease. Clinically, the calculation of the ACR score is dependent on inputs from a patient Health Assessment Questionnaire (HAQ) and analysis of the percentage improvement in the RA disease phenotypes. […]

RITUXIMAB
ACR20 [1]: 54%
ACR50 [1]: 34%
ACR70 [1]: 20%
ACR20 Diff. [2]: 26%
ACR50 Diff. [2]: 21%
ACR70 Diff. [2]: 15* %
Highest Significant Clinical Disease Remission Score [2]: ACR70 (ACR70 score pertaining to 70% improvement in the disease)

DENOSUMAB
ACR20 [1]: 23%
ACR50 [1]: 9%
ACR70 [1]: 1%
ACR20 Diff. [2]: <0%
ACR50 Diff. [2]: <0%
ACR70 Diff. [2]: <0%
Highest Significant Clinical Disease Remission Score [2]: Non

C[C@@H]1CCN(C(=O)CC#N)C[C@@H]1N(C)c1ncnc2[nH]ccc12 [TOFACITINIB]
ACR20 Diff. [2]: 66.5%
ACR50 Diff. [2]: 57.7%
ACR70 Diff. [2]: 20* %
Highest Significant Clinical Disease Remission Score [2]: ACR70 (ACR70 score pertaining to 70% improvement in the disease)

SECUKINUMAB
ACR20 [1]: 54%
ACR50 [1]: 27%
ACR70 [1]: 12%
ACR20 Diff. [2]: 23* %
ACR50 Diff. [2]: 12%
ACR70 Diff. [2]: 0%
Highest Significant Clinical Disease Remission Score [2]: ACR20 (ACR20 score pertaining to 20% improvement in the disease)

TOCILIZUMAB
ACR20 [1]: 74%
ACR50 [1]: 53%
ACR70 [1]: 37%
ACR20 Diff. [2]: 33%
ACR50 Diff. [2]: 24%
ACR70 Diff. [2]: 21* %
Highest Significant Clinical Disease Remission Score [2]: ACR70 (ACR70 score pertaining to 70% improvement in the disease)

CN(Cc1cnc2nc(N)nc(N)c2n1)c1ccc(C(=O)N[C@@H](CCC(=O)O)C(=O)O)cc1 [METHOTREXATE]
ACR20 [1]: 46%
ACR50 [1]: 23%
ACR70 [1]: 9%
ACR20 Diff. [2]: 20%
ACR50 Diff. [2]: 15* %
ACR70 Diff. [2]: 5%
Highest Significant Clinical Disease Remission Score [2]: ACR50 (ACR50 score pertaining to 50% improvement in the disease)

ANAKINRA
ACR20 [1]: 38%
ACR50 [1]: 17%
ACR70 [1]: 6%
ACR20 Diff. [2]: 16* %
ACR50 Diff. [2]: 9%
ACR70 Diff. [2]: 4%
Highest Significant Clinical Disease Remission Score [2]: ACR20 (ACR20 score pertaining to 20% improvement in the disease)

ETANERCEPT
ACR20 [1]: 86%
ACR50 [1]: 71%
ACR70 [1]: 49%
ACR20 Diff. [2]: 15%
ACR50 Diff. [2]: 29%
ACR70 Diff. [2]: 28* %
Highest Significant Clinical Disease Remission Score [2]: ACR70 (ACR70 score pertaining to 70% improvement in the disease)

B1: AMG714: RA drug with published clinical trial data, listed among various approved drugs (antibody, chains of the INN, looked up, V domains shown)
VH: EVQLVQSGAEVKKPGESLKISCKVSGYFFTTYWIGWVRQMPGKGLEYMGIIYPGDSDTRYSPSFQGQVTISADKSISTAYLQWSSLKASDTAMYYCARGGNWNCFDYWGQGTLVTVSS
VL: EIVLTQSPGTLSLSPGERATLSCRASQSVSSSYLAWYQQKPGQAPRLLIYGASRRATGIPDRFSGSGSGTDFTLTISRLEPEDFAVYYCQRYGSSHTFGQGTKLEIS
ACR20 [1]: 62%
ACR50 [1]: 0%
ACR70 [1]: 0%
ACR20 Diff. [2]: 36* %
ACR50 Diff. [2]: 0%
ACR70 Diff. [2]: 0%
Highest Significant Clinical Disease Remission Score [2]: ACR20 (ACR20 score pertaining to 20% improvement in the disease)
